{"source": "ChEMBL document CHEMBL3992567", "about": "“Discovery of Highly Potent 2-Sulfonyl-Pyrimidinyl Derivatives for Apoptosis Inhibition and Ischemia Treatment” (ACS Med Chem Lett, 2017)", "key": {"[1]": {"target": "T1, Succinate dehydrogenase [ubiquinone] iron-sulfur subunit, mitochondrial (Homo sapiens) (UniProt P21912)", "T1 sequence (whole entry)": "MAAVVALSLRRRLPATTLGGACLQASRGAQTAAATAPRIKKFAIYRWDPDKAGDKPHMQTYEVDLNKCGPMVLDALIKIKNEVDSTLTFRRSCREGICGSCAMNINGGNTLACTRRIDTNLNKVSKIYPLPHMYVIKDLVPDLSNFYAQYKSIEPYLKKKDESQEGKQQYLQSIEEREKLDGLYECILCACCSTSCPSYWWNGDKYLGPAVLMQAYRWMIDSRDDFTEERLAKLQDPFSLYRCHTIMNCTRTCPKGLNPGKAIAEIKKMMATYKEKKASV", "assay": "Irreversible inhibition of SDHB in human U2OS cells over-expressing Bim assessed as inhibition of apoptosis preincubated for 1 hr followed by compound washout and doxycyclin addition to induce Bim protein expression measured after 24 hrs by Cell Titer-Glo assay", "type": "cell-based"}, "U2OS [2]": {"system": "U2OS", "assay": "Inhibition of mitochondrial-mediated apoptosis in human U2OS cells assessed as reduction in mitochondrial membrane potential loss at 10 uM preincubated for 1 hr followed by doxycyclin addition measured after 4 hrs by TMRM dye based confocal microscopic method", "type": "functional, cell-based"}, "U2OS [3]": {"system": "U2OS", "assay": "Inhibition of mitochondrial-mediated apoptosis in human U2OS cells assessed as reduction in ROS level preincubated for 2 hrs followed by doxycyclin addition measured after 4 hrs by DCFH-DA dye based fluorescence assay", "type": "functional, cell-based"}, "U2OS [4]": {"system": "U2OS", "assay": "Inhibition of mitochondrial-mediated apoptosis in human U2OS cells assessed as reduction in mitochondrial membrane potential loss at 1 uM preincubated for 1 hr followed by doxycyclin addition measured after 4 hrs by TMRM dye based confocal microscopic method", "type": "functional, cell-based"}, "[5]": {"assay": "Glutathione reactivity of the compound in PBS buffer at 100 nM up to 35 mins by LC-MS/Ms analysis"}, "[6]": {"assay": "Cysteine reactivity of the compound at 20 uM after 2 hrs by UPLC analysis"}, "[7]": {"assay": "Glutathione reactivity of the compound at 20 uM after 2 hrs by UPLC analysis"}, "[8]": {"assay": "Lysine reactivity of the compound at 20 uM after 2 hrs by UPLC analysis"}, "U2OS [9]": {"system": "U2OS", "assay": "Inhibition of mitochondrial-mediated apoptosis in human U2OS cells assessed as reduction in mitochondrial membrane potential loss at 100 nM preincubated for 1 hr followed by doxycyclin addition measured after 4 hrs by TMRM dye based confocal microscopic method", "type": "functional, cell-based"}, "Rattus norvegicus [10]": {"species": "Rattus norvegicus", "assay": "Protection against middle cerebral artery occlusion-induced transient focal cerebral ischemia in Sprague-Dawley rat assessed as reduction in brain infarct volume at 10 to 200 uM pretreated for 1 hr followed by reperfusion measured 24 hrs post MCAO by TTC staining based assay", "type": "functional"}, "U2OS [11]": {"system": "U2OS", "assay": "Inhibition of apoptosis in human U2OS cells over-expressing Bim assessed as mitochondrial cytochrome c release at 20 uM after 1 hr in presence of doxycyclin by confocal microscopic method", "type": "functional, cell-based"}, "U2OS [12]": {"system": "U2OS", "assay": "Inhibition of apoptosis in human U2OS cells over-expressing Bim assessed as mitochondrial cytochrome c release at 10 uM after 1 hr in presence of doxycyclin by confocal microscopic method", "type": "functional, cell-based"}, "U2OS [13]": {"system": "U2OS", "assay": "Inhibition of mitochondrial-mediated apoptosis in human U2OS cells assessed as reduction in mitochondrial membrane potential loss at 3 nM preincubated for 1 hr followed by doxycyclin addition measured after 4 hrs by TMRM dye based confocal microscopic method", "type": "functional, cell-based"}, "Rattus norvegicus [14]": {"species": "Rattus norvegicus", "assay": "Protection against middle cerebral artery occlusion-induced transient focal cerebral ischemia in Sprague-Dawley rat assessed as reduction in brain infarct volume at 50 to 200 uM pretreated for 1 hr followed by reperfusion measured 24 hrs post MCAO by TTC staining based assay", "type": "functional"}}, "note": "Calls of active or inactive are those of the source. The calls are words filed in the database; no cut-off is given here. Residues, ends and D or L forms follow the SMILES beside them."}
{"smiles": "CS(=O)(=O)c1nc(-c2ccc(=O)n(Cc3ccccc3)c2)cc(C(F)(F)F)n1", "values": [{"measurement": "inhibition", "setting": "[1]", "value": "Active"}, {"measurement": "inhibition", "setting": "U2OS [2]", "value": "Active"}, {"measurement": "inhibition", "setting": "U2OS [3]", "value": "Active"}]}
{"smiles": "CS(=O)(=O)c1nc(-c2ccc(=O)n(Cc3ccc(Cl)cc3)c2)cc(C(F)(F)F)n1", "values": [{"measurement": "inhibition", "setting": "[1]", "value": "Active"}, {"measurement": "inhibition", "setting": "U2OS [4]", "value": "Active"}, {"measurement": "inhibition", "setting": "U2OS [3]", "value": "Active"}]}
{"smiles": "COc1ccc(Cn2cc(-c3cc(C(F)(F)F)nc(S(C)(=O)=O)n3)ccc2=O)cc1OC", "values": [{"measurement": "Activity", "setting": "[5]", "value": "Active"}, {"measurement": "Activity", "setting": "[6]", "value": "Active"}, {"measurement": "Activity", "setting": "[7]", "value": "Active"}, {"measurement": "Activity", "setting": "[8]", "value": "inactive"}, {"measurement": "inhibition", "setting": "[1]", "value": "Active"}, {"measurement": "inhibition", "setting": "U2OS [9]", "value": "Active"}, {"measurement": "inhibition", "setting": "U2OS [3]", "value": "Active"}, {"measurement": "Activity", "setting": "Rattus norvegicus [10]", "value": "Active"}]}
{"smiles": "COc1cccc(Cn2cc(-c3cc(C(F)(F)F)nc(S(C)(=O)=O)n3)ccc2=O)c1", "values": [{"measurement": "inhibition", "setting": "[1]", "value": "Active"}, {"measurement": "inhibition", "setting": "U2OS [3]", "value": "Active"}]}
{"smiles": "CS(=O)(=O)c1nc(-c2cccs2)cc(C(F)(F)F)n1", "values": [{"measurement": "Activity", "setting": "[6]", "value": "Active"}, {"measurement": "Activity", "setting": "[7]", "value": "Active"}, {"measurement": "Activity", "setting": "[8]", "value": "inactive"}, {"measurement": "inhibition", "setting": "[1]", "value": "Active"}]}
{"smiles": "CC(C)[C@H](NC(=O)OCc1ccccc1)C(=O)N[C@@H](C)C(=O)N[C@@H](CC(=O)O)C(=O)O", "note": "(HELM PEPTIDE1{[O=C(OCc1ccccc1)[*:2]].V.A.D}$$$$V2.0)", "values": [{"measurement": "inhibition", "setting": "U2OS [11]", "value": "inactive"}, {"measurement": "inhibition", "setting": "U2OS [2]", "value": "inactive"}]}
{"smiles": "COc1ccc(Cn2cc(-c3cc(C(F)(F)F)nc(S(C)(=O)=O)n3)ccc2=O)cc1", "values": [{"measurement": "inhibition", "setting": "[1]", "value": "Active"}]}
{"smiles": "CS(=O)(=O)c1nc(-c2ccc(=O)n(Cc3ccccc3Cl)c2)cc(C(F)(F)F)n1", "values": [{"measurement": "inhibition", "setting": "[1]", "value": "Active"}]}
{"smiles": "Cc1ccc(O)c(NC(=O)CCCS(=O)(=O)c2nc(-c3cccs3)cc(C(F)(F)F)n2)c1", "values": [{"measurement": "inhibition", "setting": "U2OS [12]", "value": "Active"}]}
{"smiles": "CS(=O)(=O)c1nc(-c2ccc(=O)n(Cc3cccc(Cl)c3)c2)cc(C(F)(F)F)n1", "values": [{"measurement": "inhibition", "setting": "[1]", "value": "Active"}, {"measurement": "inhibition", "setting": "U2OS [4]", "value": "Active"}, {"measurement": "inhibition", "setting": "U2OS [3]", "value": "Active"}]}
{"smiles": "Cc1cc(-c2cccs2)nc(S(C)(=O)=O)n1", "values": [{"measurement": "Activity", "setting": "[6]", "value": "inactive"}, {"measurement": "Activity", "setting": "[7]", "value": "inactive"}, {"measurement": "Activity", "setting": "[8]", "value": "inactive"}]}
{"smiles": "CS(=O)(=O)c1nc(-c2ccccc2)cc(C(F)(F)F)n1", "values": [{"measurement": "inhibition", "setting": "[1]", "value": "Active"}]}
{"smiles": "CCOC(=O)CCS(=O)(=O)c1nc(-c2cccs2)cc(C(F)(F)F)n1", "values": [{"measurement": "inhibition", "setting": "[1]", "value": "Active"}]}
{"smiles": "COc1ccc(Cn2cc(-c3cc(C(F)(F)F)nc(S(=O)(=O)CCCC(=O)NC45CC6CC(CC(C6)C4)C5)n3)ccc2=O)cc1OC", "values": [{"measurement": "Activity", "setting": "[5]", "value": "Active"}, {"measurement": "Activity", "setting": "[6]", "value": "Active"}, {"measurement": "Activity", "setting": "[7]", "value": "Active"}, {"measurement": "Activity", "setting": "[8]", "value": "inactive"}, {"measurement": "inhibition", "setting": "[1]", "value": "Active"}, {"measurement": "inhibition", "setting": "U2OS [13]", "value": "Active"}, {"measurement": "Activity", "setting": "Rattus norvegicus [14]", "value": "Active"}]}
{"smiles": "CCCOc1cccc(Cn2cc(-c3cc(C(F)(F)F)nc(S(C)(=O)=O)n3)ccc2=O)c1", "values": [{"measurement": "inhibition", "setting": "[1]", "value": "Active"}, {"measurement": "inhibition", "setting": "U2OS [3]", "value": "Active"}]}
